Consider 28 molecules from PMC10823399 (Journal of medicinal chemistry, 2015).

Experiment [1] deals with T1, D2LR (Homo sapiens, UniProt P14416). Nature of the experiment: ERK1/2 phosphorylation assay, interaction with dopamine. Conditions: for activity at the D2R in words: effect on dopamine concentration-response, highest concentration 300 μM; for Kb: operational model of allosterism (Equation 5). Type of experiment: cell-based.
In a further experiment the target is Val91^2.61Ala D2R (Homo sapiens, UniProt P14416, V91A). Nature of the experiment: ERK1/2 phosphorylation assay at mutant D2R. Type of experiment: cell-based.
Chain of Val91^2.61Ala D2R (P14416 whole entry V91A): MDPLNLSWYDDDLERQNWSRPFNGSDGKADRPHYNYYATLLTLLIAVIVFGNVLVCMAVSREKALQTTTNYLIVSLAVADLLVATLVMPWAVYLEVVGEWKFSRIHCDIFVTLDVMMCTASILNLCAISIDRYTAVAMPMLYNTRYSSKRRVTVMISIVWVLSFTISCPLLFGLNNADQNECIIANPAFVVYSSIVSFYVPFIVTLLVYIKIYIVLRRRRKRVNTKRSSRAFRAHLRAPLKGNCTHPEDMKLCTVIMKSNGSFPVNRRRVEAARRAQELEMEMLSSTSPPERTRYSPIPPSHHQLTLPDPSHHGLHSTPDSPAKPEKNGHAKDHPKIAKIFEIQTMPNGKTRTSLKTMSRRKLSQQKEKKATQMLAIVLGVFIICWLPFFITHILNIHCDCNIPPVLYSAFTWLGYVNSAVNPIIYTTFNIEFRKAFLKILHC
The target of another experiment is Glu95^2.65Ala D2R (Homo sapiens, UniProt P14416, E95A). In words: ERK1/2 phosphorylation assay at mutant D2R. Type of experiment: cell-based.
Chain of Glu95^2.65Ala D2R (P14416 whole entry E95A): as the sequence (P14416 whole entry V91A) above, with A91V, E95A counted along it
Experiment [2] addresses T2, D2R (Homo sapiens, UniProt P14416). Nature of the experiment: Interaction of bitopic ligand 36 with dopamine at the D2R.
The target in experiment [3] is T2, D2R. In words: [35S]GTPγS binding assay, interaction with dopamine. Type of experiment: biochemical. The settings on record: composite cooperativity with dopamine.
The target in experiment [4] is T1, D2LR. Nature of the experiment: BRET cAMP assay. Type of experiment: cell-based. A general note: BRET reads energy transfer from a luciferase to a nearby fluorophore.
In experiment [5] the target is T2, D2R. Nature of the experiment: [3H]spiperone binding assay.
Where [6] appears, read: Table 3, binding cooperativity with dopamine.
[7] abbreviates: Table 4, binding cooperativity with dopamine.
Where [8] appears, read: WT D2R, binding cooperativity with dopamine.

pKi: −log10 of the molar value.

T1 sequence (P14416 whole entry): as the sequence (P14416 whole entry V91A) above, with A91V counted along it
T2 sequence (P14416 whole entry): as the sequence (P14416 whole entry V91A) above, with A91V counted along it

Take `NCCc1ccc(O)c(O)c1` [dopamine, reference compound]: the LogτA on D2LR [1] (WT D2R expressing cell line) turned out to be 0.74 ± 0.07; at Val91^2.61Ala D2R (V91A D2R expressing cell line), 0.65 ± 0.19; at Glu95^2.65Ala D2R (E95A D2R expressing cell line), 0.71 ± 0.24.

Turning to `CC(C)NC(=O)c1cccc2cc[nH]c12` [Compound 30d, N-Isopropyl-1H-indole-7-carboxamide], the “activity at the D2R in words” value at D2LR [1] is on record as “devoid of detectable activity”.

For the molecule `CC(C)NC(=O)c1cc2c(F)cccc2[nH]1` [Compound 13b, 4-Fluoro-N-isopropyl-1H-indole-2-carboxamide], the Logα on D2LR [1] (setting [6]) is reported as −1.14 ± 0.10.

In turn, `O=C(NN1CCCCC1)c1cc2ccccc2[nH]1` [Compound 11s, N-(Piperidin-1-yl)-1H-indole-2-carboxamide] registered a Logα on D2LR [1] (setting [6]) of −0.53 ± 0.13.

With `CC(C)NC(=O)c1csc2ccccc12` [Compound 25b, N-Isopropylbenzo[b]thiophene-3-carboxamide], the “activity at the D2R in words” value on D2LR [1] was “did not show activity”.

At D2LR [1] (setting [6]), `C=CCNC(=O)c1cc2ccccc2[nH]1` [Compound 11e, N-Allyl-1H-indole-2-carboxamide] displayed a Logα of −0.26 ±0.06.

In turn, `CC(C)NC(=O)c1ccc2cc[nH]c2c1` [Compound 30c, N-Isopropyl-1H-indole-6-carboxamide] returned a Logα on D2LR [1] (setting [7]) of −1.1 ± 0.3.

`O=C(NC1CCC1)c1cc2ccccc2[nH]1` [Compound 11p, N-Cyclobutyl-1H-indole-2-carboxamide] registered a Logα at D2LR [1] (setting [6]) of −1.77 ± 0.27.

Turning to `NC(=O)c1cc2ccccc2[nH]1` [Compound 11a, 1H-Indole-2-carboxamide], the “activity at the D2R in words” value on D2LR [1] is on record as “does not exhibit receptor binding”.

For `CCNC(=O)c1cc2ccccc2[nH]1` [Compound 11b, N-Ethyl-1H-indole-2-carboxamide], the Logα on D2LR [1] (setting [6]) was −0.35 ± 0.21.

With `CCCCNC(=O)c1cc2ccccc2[nH]1` [Compound 11d, N-Butyl-1H-indole-2-carboxamide], the “increase in affinity compared to 3” value at D2LR [1] is 7 fold. Further, the “increase in negative cooperativity compared to 3” value on D2LR [1] was 10 fold. In addition, the Logα at D2LR [1] (setting [6]) is reported as −1.63 ± 0.11; on D2LR [1] (Table 5, Wild Type), −1.63 ± 0.11; on Glu95^2.65Ala D2R (Table 5, Glu95^2.65Ala), −1.24 ± 0.17. The α on D2LR [1] (Table 5, Wild Type) was determined as 0.02; on Glu95^2.65Ala D2R (Table 5, Glu95^2.65Ala), 0.05. Further, the Logβ is on record as −100 on D2LR [1] (Table 5, Wild Type, constrained) and 0 at Glu95^2.65Ala D2R (Table 5, Glu95^2.65Ala, no modulation of dopamine efficacy). Besides, at Val91^2.61Ala D2R (Val91^2.61Ala vs WT), the “decrease in affinity caused by mutation” value came out at 14 fold.

For `N#Cc1ccc2c(c1)CN(CCCCNC(=O)c1cc3ccccc3[nH]1)CC2` [Compound 36, N-(4-(7-Cyano-3,4-dihydroisoquinolin-2(1H)-yl)butyl)-1H-indole-2-carboxamide], on D2R [2], the Kb is 0.0813 µM and the “increase in affinity as compared to 1” value is on record as 10 fold. This molecule came in with a Logαβ on D2R [2] (Figure 7, negative cooperativity with dopamine) of −1.32 ± 0.09.

On D2LR [1] (setting [6]), `CC(C)(C)NC(=O)c1cc2ccccc2[nH]1` [Compound 11h, N-(tert-Butyl)-1H-indole-2-carboxamide] displayed a Logα of −0.58 ± 0.13.

At D2LR [1] (setting [7]), `CC(C)NC(=O)c1ccc2[nH]ccc2c1` [Compound 30b, N-Isopropyl-1H-indole-5-carboxamide] had a Logα of −1.27 ± 0.3.

On to `CC(C)N(C(=O)c1cc2ccccc2[nH]1)C(C)C` [Compound 11j, N,N-Diisopropyl-1H-indole-2-carboxamide], for which, on D2LR [1] (setting [6]), the Logα was −1.39 ± 0.11.

`CC(C)NC(=O)c1[nH]c2ccccc2c1F` [Compound 13a, 3-Fluoro-N-isopropyl-1H-indole-2-carboxamide]: on D2LR [1] (setting [6]), the Logα is listed as −0.72 ± 0.35 and the α worked out at 0.19.

Regarding `O=C(NC1CCCCC1)c1cc2ccccc2[nH]1` [Compound 11r, N-Cyclohexyl-1H-indole-2-carboxamide], on D2LR [1], the “activity at the D2R in words” value is “no determinable activity”.

For the molecule `CCCNC(=O)c1cc2ccccc2[nH]1` [Compound 11c, N-Propyl-1H-indole-2-carboxamide], at D2LR [1] (setting [6]), the Logα is −0.60 ± 0.09.

Regarding `CC(C)NC(=O)c1cc2cccnc2[nH]1` [Compound 27, N-Isopropyl-1H-pyrrolo[2,3-b]pyridine-2-carboxamide], the “activity at the D2R in words” value at D2LR [1] is listed as “lack of activity”.

As for `CC(C)NC(=O)c1cccc2[nH]ccc12` [Compound 30a, N-Isopropyl-1H-indole-4-carboxamide], the “activity at the D2R in words” value on D2LR [1] is “devoid of detectable activity”.

In the case of `CC(C)NC(=O)c1cc2cccc(F)c2[nH]1` [Compound 13e, 7-Fluoro-N-isopropyl-1H-indole-2-carboxamide], the Logα on D2LR [1] (setting [6]) is listed as −0.96 ± 0.12.

Take `O=C(NCCO)c1cc2ccccc2[nH]1` [Compound 11f, N-(2-Hydroxyethyl)-1H-indole-2-carboxamide]: at D2LR [1], the “activity at the D2R in words” value is given as “inactivity”.

Regarding `O=C(NC1CCCC1)c1cc2ccccc2[nH]1` [Compound 11q, N-Cyclopentyl-1H-indole-2-carboxamide], on D2LR [1] (setting [6]), the Logα is reported as −0.63 ± 0.11.

Turning to `CC(C)NC(=O)c1cc2ccccc2n1C` [Compound 17, N-Isopropyl-1-methyl-1H-indole-2-carboxamide], the “activity at the D2R in words” value on D2LR [1] is “did not show activity”.

On D2R [3], `CN(C)CC[C@H]1CC[C@H](NC(=O)c2cc3ccccc3[nH]2)CC1.Cl` [Compound 9a, N-((trans)-4-(2-(Dimethylamino)ethyl)cyclohexyl)-1H-indole-2-carboxamide hydrochloride] returned a Logαβ of −0.84 ± 0.15. Moreover, the αβ on D2R [3] (<1 negative) is recorded as 0.14. This molecule also showed a Kb on D2LR [1] (KB, WT D2R) of 3 µM. At D2LR [1] (setting [8]), the Logα is listed as −0.61 ± 0.14 and the α is listed as 0.25. For the same molecule, the Logβ on D2LR [1] (WT D2R, modulation of dopamine efficacy, fixed to −100 in the fit) is listed as −100. This molecule also gave a Kb on D2LR [1] (pKB, WT D2R) of 2.88 µM.

In the case of `CC(C)NC(=O)c1nc2ccccc2[nH]1` [Compound 19, N-Isopropyl-1H-benzo[d]imidazole-2-carboxamide], on D2LR [1] (setting [7]), the Logα is reported as −1.07 ± 0.22.

`CCCN(CCC)CC[C@H]1CC[C@H](NC(=O)c2cc3ccccc3[nH]2)CC1` [Compound 9b, N-((trans)-4-(2-(Dipropylamino)ethyl)cyclohexyl)-1H-indole-2-carboxamide]: the results for the “mode of action in words” value on D2LR [4] and on D2LR [1] (pERK1/2 assay) were “competitive partial agonist” and “partial agonist”, respectively. Besides, the pKi (as a rule, the negative decadic logarithm of the Ki, by convention in mol/L) at D2R [5] was 4.70.

`CC(C)NC(=O)c1nc2ccccc2o1` [Compound 21, N-Isopropylbenzo[d]oxazole-2-carboxamide]: on D2LR [1], the “activity at the D2R in words” value is “did not show activity”.
